Conditions: 5500 kPa, Brillouin Light Scattering

CCCCCC [hexane]
speed of sound [m/s]
Conditions | 300.09 K | 353.12 K | 403.17 K | 453.15 K | 503.13 K | 547.89 K | 578.22 K | 608.05 K | 636.04 K
Fluid (supercritical or subcritical phases) | – | – | – | – | – | 158.25 | 154.04 | 178.03 | 194.98
Liquid | 1111.2 | 898.5 | 705.9 | 513 | 323.7 | – | – | – | –

— the NIST ThermoML archive (doi:10.1016/j.jct.2016.09.005)
